The test system of experiment [1] is radiation-induced mucositis. The experiment in a line: Radiation-induced mucositis in the lip of irradiated mice, total mucositis score (erythema + edema, Parkins scoring). It is filed as in vivo, C57BL/6 female mice. On the set-up: key to Total Mucositis Score After 11 days: combined erythema + edema score (Parkins), maximum 7. Particulars: for Score (total mucositis score): amifostine 50 mg/ml, 200 mg/Kg s.c. 30 minutes before 16.5 Gy irradiation, maximum score 7. An excerpt: One of the major limiting acute toxicities associated with radiotherapy is radiation-induced mucositis. The ability to reduce the duration and severity of acute mucosal reactions is of particular importance in the radiotherapy and/or chemotherapy of head and neck cancer. Therefore, the radioprotective effects of amifostine were examined in an experimental model of mucositis. In particular, the study compared the radioprotective effects of amifostine by subcutaneous (s.c.) and intraperitoneal (i.p.) administration.
(§1) C57BL/6 female mice of 8-10 weeks old were used and fed with semi liquid food. The mice were randomly divided into treatment groups of five mice each. The treatment groups were, for example,
(§2) Unanesthetized mice were maintained in supine position and irradiated exclusively on the tip of their mouth. […] Irradiation was performed with a RT 250 Philips apparatus delivering 1.98 Gy per min. (200 Kv, 20 mA, filter of 0.2 mm de Cu). During irradiation, a constant normobaric air renewal was maintained. The effects of amifostine were evaluated using a single dose of 16.5 Gy.
(§3) Amifostine was dissolved in appropriate diluent to achieve a final concentration of 50 mg/ml immediately before injections. Amifostine was dissolved in 0.075% sodium deoxycholate to achieve a final concentration of 50 mg/ml. Amifostine was dissolved in a mixture of 2% EDTA and 2% sorbitol to achieve a final concentration of 50 mg/ml. Amifostine was dissolved in 0.2% EDTA to achieve a final concentration of 50 mg/ml. Subcutaneous injections (200 mg/Kg) were conducted 30 minutes before irradiation. Where a control group was used, a first control group was injected with the saline solution and subsequently irradiated, and a second control group was injected with the saline solution, but was not irradiated.
(§4) The effects of irradiation on lip mucosa were evaluated using the scoring system described by Parkins et al. (1983, Radiother. Oncol. 1:159-165). Body weight of the treated mice were scored periodically after treatment. Reduction in body weight was used as an objective indication of the severity of mucositis induced by irradiation, presumably resulting from the inability of the animals to eat. In this model, the acute reactions peaked on day 10 to 11 after irradiation.
Other symptoms of mucositis such as mucosal erythema and edema were also recorded. These symptoms developed more slowly than weight loss following irradiation. Mucosal erythema and edema were scored separately, and could be analyzed as separate scores or as a combined score yielding a maximum score of 7. Mouse lip mucosal erythema was scored according to Table 1.
Mucosal edema (swelling) of the lips was scored according to table 2.
(§5) These examples describe pharmaceutical formulations of the invention comprising amifostine in combination with surfactants and/or hydrotropes and/or chelating agents. The pharmaceutical formulations were administered, and the effects of irradiation on lip mucosa evaluated using the methods described in the first Example above.

The nature of experiment [2]: Body weight of irradiated mice as objective indicator of mucositis. The class given is in vivo, C57BL/6 female mice. Particulars: for Weight: amifostine 50 mg/ml, 200 mg/Kg s.c. 30 minutes before 16.5 Gy irradiation. On the procedure:
as §1, §2, §3, §4, §5

With `NCCCNCCSP(=O)(O)O` [Amifostine, S-2-(3-aminopropylamino)ethyl dihydrogen phosphorothioate], the “Score (total mucositis score)” value in experiment [1] (Day 0) is 0.0; in experiment [1] (Day 6), 0.5; in experiment [1] (Day 10), 1.7; in experiment [1] (Day 11) it was 1.8; in experiment [1] (Day 12), 1.3; in experiment [1] (Day 18), 0.4. In experiment [1] (Day 28), the “Score (total mucositis score)” value was determined as 0.0. In addition, the Weight in experiment [2] (Day 0) is 16.4 g; in experiment [2] (Day 6), 15.8 g; in experiment [2] (Day 10), 17.4 g; in experiment [2] (Day 11), 17.8 g; in experiment [2] (Day 12), 17.6 g; in experiment [2] (Day 18), 18.4 g. In experiment [2] (Day 28), the Weight was determined as 19.5 g. Moreover, the “Effect on body weight reduction after irradiation (in words)” value in experiment [2] (s.c. administration before irradiation, compared with other groups) is reported as “Less severe reductions in body weight”.
For the compound `NCCCNCCS` [WR-1065, S-2-(3-aminopropylamino)ethanethiol], in experiment [1] (after 11 days, irradiated mice, methods of Example 1), the “Total Mucositis Score After 11 days” value came out at 5.1. Besides, in experiment [2] (after 6 days, irradiated mice, methods of Example 1), the “% Weight Change After 6 Days” value was −8.7%.

These data come from US6489312B1, “Pharmaceutical formulations comprising aminoalkyl phosphorothioates” (MedImmune Oncology, Inc., priority 1999, dated 2002).
